23 compounds from patent US11174251B2, “Compositions and methods for inhibition of the JAK pathway” (Rigel Pharmaceuticals, Inc., priority 2010, dated 2021) can be followed below.

Counter-ions that a name gives are not always drawn. Some results are limits rather than exact numbers.

The target of this test is T1, JAK3 (Homo sapiens, UniProt P52333).
T1 construct: The Ramos B-cell line was acquired from ATCC (ATCC Catalog No. CRL-1596); host or cells: Ramos B-cell line (human)
T1 sequence (P52333 1-1124): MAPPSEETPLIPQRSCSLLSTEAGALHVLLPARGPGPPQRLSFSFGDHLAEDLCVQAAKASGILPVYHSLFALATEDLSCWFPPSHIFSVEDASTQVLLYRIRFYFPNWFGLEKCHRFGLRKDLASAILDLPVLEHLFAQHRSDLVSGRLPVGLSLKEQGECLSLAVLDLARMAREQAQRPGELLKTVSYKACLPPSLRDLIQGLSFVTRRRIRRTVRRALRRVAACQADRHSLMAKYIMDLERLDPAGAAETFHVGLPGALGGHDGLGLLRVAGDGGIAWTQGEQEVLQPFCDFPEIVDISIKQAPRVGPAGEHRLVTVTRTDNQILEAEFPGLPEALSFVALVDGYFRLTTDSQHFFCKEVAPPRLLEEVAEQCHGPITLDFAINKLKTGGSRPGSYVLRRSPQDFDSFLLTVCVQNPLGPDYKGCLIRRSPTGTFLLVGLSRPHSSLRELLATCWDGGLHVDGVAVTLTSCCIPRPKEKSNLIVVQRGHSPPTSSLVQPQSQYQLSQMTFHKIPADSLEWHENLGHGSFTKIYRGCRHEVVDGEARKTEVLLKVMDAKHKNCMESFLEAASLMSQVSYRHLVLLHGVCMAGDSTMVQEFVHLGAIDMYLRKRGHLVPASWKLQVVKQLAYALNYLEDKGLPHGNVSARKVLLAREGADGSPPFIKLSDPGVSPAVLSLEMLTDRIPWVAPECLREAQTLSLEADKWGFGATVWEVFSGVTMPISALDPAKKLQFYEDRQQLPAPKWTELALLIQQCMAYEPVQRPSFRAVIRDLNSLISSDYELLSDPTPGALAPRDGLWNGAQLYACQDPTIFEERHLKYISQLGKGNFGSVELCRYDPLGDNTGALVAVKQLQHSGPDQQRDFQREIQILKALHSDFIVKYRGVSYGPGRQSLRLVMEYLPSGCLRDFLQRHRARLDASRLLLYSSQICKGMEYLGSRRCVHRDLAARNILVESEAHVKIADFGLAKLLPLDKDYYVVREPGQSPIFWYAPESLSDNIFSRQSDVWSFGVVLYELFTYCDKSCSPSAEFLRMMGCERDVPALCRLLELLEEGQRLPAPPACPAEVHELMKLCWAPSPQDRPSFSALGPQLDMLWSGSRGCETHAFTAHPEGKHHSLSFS
In words: Assay for CD23 expression on Ramos B-cells stimulated by IL-4 (Table IV: ability to inhibit JAK3 activity). It is filed as cell-based. Conditions: tested under conditions described in Example 3 (so in the source). In a few lines:
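IL-4-induced CD23 surface expression on human Ramos B cells, detected by flow cytometry after 20–24 h stimulation (IL-4 final 50 units/mL). Compound or DMSO added 1 h beforehand at 37 °C; cells kept in RPMI with 5% serum.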

The IC50 is the concentration needed to halve the response being measured. Read a low IC50 as greater potency. In turn, `COC(=O)c1cnc(Nc2ccc3ccccc3c2)nc1Nc1ccc2oc(=O)[nH]c2c1` [II-7, 2-(Naphthalen-2-ylamino)-4-(2-oxo-2,3-dihydro-benzooxazol-5-ylamino)-pyrimidine-5-carboxylic acid methyl ester trifluoroacetate salt] had a concentration for half-maximal inhibition (IC50) greater than 10000 nM.

In turn, `CCN(CC)Cc1cnc(Nc2cc(C)c(C)c(C)c2)nc1Nc1ccc2oc(=O)[nH]c2c1` [Compound I-97, 5-(5-((diethylamino)methyl)-2-(3,4,5-trimethylphenylamino)pyrimidin-4-ylamino)benzo[d]oxazol-2(3H)-one ditrifluoroacetate salt] came in with a 50% inhibitory concentration (IC50) of 500 to 5000 nM.

`[2H]C([2H])([2H])c1c(C)cc(Nc2nccc(Nc3ccc4oc(=O)[nH]c4c3)n2)cc1C` [Compound I-38, 5-(2-(3,5-dimethyl-4-d3-methyl)phenylamino)pyrimidin-4-ylamino)benzo[d]oxazol-2(3H)-one trifluoroacetate salt] had an IC50 of less than 500 nM.

For the compound `Cc1cc(Nc2nc(Nc3cccc(S(C)(=O)=O)c3)ncc2F)cc2[nH]c(=O)oc12` [Compound I-172, 5-(2-(3-(methylsulfonyl)phenylamino)-5-fluoropyrimidin-4-ylamino)-7-methylbenzo[d]oxazol-2(3H)-one trifluoroacetate salt], the half-inhibitory concentration (IC50) was less than 500 nM.

`COc1cc(C)cc(Nc2ncc(F)c(Nc3cc(C)c4oc(=O)[nH]c4c3)n2)c1` [Compound I-177, 5-(2-(3-methoxy-5-methylphenylamino)-5-fluoropyrimidin-4-ylamino)-7-methylbenzo[d]oxazol-2(3H)-one trifluoroacetate salt] gave an IC50 greater than 10000 nM.

`Cc1cnc(Nc2cc(C)c(C)c(CO)c2)nc1Nc1ccc2oc(=O)[nH]c2c1` [Compound I-147, N2-(3,4-dimethyl-5-hydroxymethyl)phenyl-5-methyl-N4-(2-oxo-2,3-dihydro-1,3-benzoxazol-5-yl)-2,4-pyrimidinediamine] showed an IC50 of less than 500 nM.

As to `CCNC(=O)c1ccc(Nc2ncc(F)c(Nc3ccc4oc(=O)[nH]c4c3)n2)cc1` [Compound I-162, N-ethyl-4-(5-fluoro-4-(2-oxo-2,3-dihydrobenzo[d]oxazol-5-ylamino)pyrimidin-2-ylamino)benzamide formate salt], the IC50 was less than 500 nM.

`COc1cc(Nc2ncc(F)c(Nc3cc(C)c4oc(=O)[nH]c4c3)n2)cc(C)c1C` [Compound I-110, 5-(5-fluoro-2-(3-methoxy-4,5-dimethylphenylamino)pyrimidin-4-ylamino)-7-methylbenzo[d]oxazol-2(3H)-one trifluoroacetate salt] returned an IC50 of less than 500 nM.

For the compound `COc1cc(Nc2ncc(C)c(Nc3ccc4oc(=O)n(C)c4c3)n2)cc(C)c1F` [Compound I-127, 5-(2-(4-fluoro-3-methoxy-5-methylphenylamino)-5-methylpyrimidin-4-ylamino)-3-methylbenzo[d]oxazol-2(3H)-one trifluoroacetate salt], the IC50 was less than 500 nM.

`C#Cc1cccc(Nc2ncc(C)c(Nc3ccc4oc(=O)[nH]c4c3)n2)c1` [Compound I-31, 5-[2-(3-Ethynyl-phenylamino)-5-methyl-pyrimidin-4-ylamino]-3H-benzooxazol-2-one] returned an IC50 of less than 500 nM.

`Cc1cnc(Nc2cc(C)c(C)c(C)c2)nc1Nc1ccc2oc(=O)n(COP(=O)(O)OCCN(C)C)c2c1` [Compound I-133, N4-{3-[2-(N,N-dimethylamino)ethoxy]phosphinyloxymethyl-2-oxo-2,3-dihydro-1,3-benzoxazol-5-yl}-5-methyl-N2-(3,4,5-trimethyl)phenyl-2,4-pyrimidinediamine] showed an IC50 of 5000 to 10000 nM.

Compound `COCCOc1ccc(Nc2ncc(C)c(Nc3ccc4oc(=O)[nH]c4c3)n2)c(F)c1OCCOC` [Compound I-77, 5-(2-(2-fluoro-3,4-bis(2-methoxyethoxy)phenylamino)-5-methylpyrimidin-4-ylamino)benzo[d]oxazol-2(3H)-one trifluoroacetate salt] displayed an IC50 of less than 500 nM.

`COc1ccc(Nc2ncc(Cl)c(Nc3ccc4oc(=O)[nH]c4c3)n2)c(F)c1` [Compound I-76, 5-(5-chloro-2-(2-fluoro-4-methoxyphenylamino)pyrimidin-4-ylamino)benzo[d]oxazol-2(3H)-one trifluoroacetate salt] gave a 50% inhibitory concentration (IC50) of less than 500 nM.

On to `Cc1cnc(Nc2ccc3c(c2)C(=O)NC3)nc1Nc1ccc2oc(=O)[nH]c2c1` [II-11, 5-methyl-N4-(2-oxo-2,3-dihydro-1,3-benzoxazol-5-yl)-N2-(1-oxo-1,3-dihydro-2H-isoindol-6-yl)-2,4-pyrimidinediamine], for which the IC50 was less than 500 nM.

For `CC(C)c1ccc(Nc2ncc(F)c(Nc3ccc4oc(=O)[nH]c4c3)n2)cc1` [Compound I-200, 5-(2-(4-isopropylphenylamino)-5-fluoropyrimidin-4-ylamino)benzo[d]oxazol-2(3H)-one trifluoroacetate salt], the half-maximal inhibitory concentration (IC50) was in the range of 500 to 5000 nM.

The compound `CCNc1cc(Nc2ncc(Cl)c(Nc3ccc4oc(=O)[nH]c4c3)n2)cc(C)c1C` [Compound I-87, 5-(5-chloro-2-(3-(ethylamino)-4,5-dimethylphenylamino)pyrimidin-4-ylamino)benzo[d]oxazol-2(3H)-one formate salt] showed an IC50 of less than 500 nM.

`COc1ccc(Nc2ncc(C)c(Nc3ccc4oc(=O)[nH]c4c3)n2)c(F)c1OC` [Compound I-102, 5-(2-(2-fluoro-3,4-d6-dimethoxyphenylamino)-5-methylpyrimidin-4-ylamino)benzo[d]oxazol-2(3H)-one] had a half-maximal inhibitory concentration (IC50) of less than 500 nM.

For the compound `Cc1cnc(Nc2cc(C)c(C)c(C)c2)nc1Nc1ccc2oc(=O)n(COP(=O)(O)O)c2c1` [Compound I-130, 5-methyl-N4-[3-(phosphonooxy)methyl-2-oxo-2,3-dihydro-1,3-benzoxazol-5-yl]-N2-(3,4,5-trimethyl)phenyl-2,4-pyrimidinediamine arginine salt], the IC50 is less than 500 nM.

`Cc1cc(Nc2ncc(Cl)c(Nc3ccc4oc(=O)[nH]c4c3)n2)cc(C)c1C` [Compound I-6, 5-(5-chloro-2-(3,4,5-trimethylphenylamino)pyrimidin-4-ylamino)benzo[d]oxazol-2(3H)-one trifluoroacetate salt]: the IC50 is greater than 10000 nM.

As to `Cc1cnc(Nc2cc(C)c(C(=O)OCc3ccccc3)c(C)c2)nc1Nc1ccc2oc(=O)[nH]c2c1` [Compound I-141, N2-(4-benzyloxycarbonyl-3,5-dimethyl)phenyl-5-methyl-N4-(2-oxo-2,3-dihydro-1,3-benzoxazol-5-yl)-2,4-pyrimidinediamine], the concentration for half-maximal inhibition (IC50) was less than 500 nM.

As for `Cc1ccc(Nc2ncc(F)c(Nc3ccc4oc(=O)[nH]c4c3)n2)cc1-c1cccnc1` [Compound I-204, 5-(2-(4-methyl-3-(pyridin-3-yl)phenylamino)-5-fluoropyrimidin-4-ylamino)benzo[d]oxazol-2(3H)-one], the IC50 is less than 500 nM.

As to `COC(=O)c1cnc(Nc2ccc(C)c(N(C)C)c2)nc1Nc1ccc2oc(=O)[nH]c2c1` [Compound I-57, 2-(3-Dimethylamino-4-methyl-phenylamino)-4-(2-oxo-2,3-dihydro-benzooxazol-5-ylamino)-pyrimidine-5-carboxylic acid methyl ester trifluoroacetate salt], the IC50 is greater than 10000 nM.

In turn, `COc1cc(Nc2ncc(F)c(Nc3ccc4oc(=O)[nH]c4c3)n2)ccc1-c1ccncc1` [Compound I-207, 5-(2-(3-methoxy-4-(pyridin-4-yl)phenylamino)-5-fluoropyrimidin-4-ylamino)benzo[d]oxazol-2(3H)-one formate salt] registered a 50% inhibitory concentration (IC50) greater than 10000 nM.
